Laboratory results taken from US6660864B2, “Polymorphic forms of 6-[4-(1-cyclohexyl-1H-tetrazol-5-yl)butoxy]-3,4-dihydro-2(1H)-quinolinone” (priority 2001, dated 2003).

Experiments:
[1] = Bioavailability of cilostazol polymorphic form; format: in vivo; conditions: Form A as prepared by the procedures of the '479 patent
[2] = Aqueous solubility of cilostazol polymorphic form; format: physicochemical; conditions: Form A as prepared by the procedures of the '479 patent
[3] = Relative solubility suggested by DSC thermogram (lower melting point, crystal packing forces); format: physicochemical; conditions: suggested by the lower melting point in DSC (FIG. 8)
Source text: (§1) Characterization of Form A of cilostazol, Form B of cilostazol, and Form C of cilostazol was further completed using DSC thermograms, shown in FIGS. 3, 4, and 5, respectively, with DSC thermograms for combinations of Form A and Form B; Form B and Form C; and Forms A, B, and C are shown in FIGS. 6, 7, and 8 respectively. DSC data were generated using a Mettler-Toledo DSC 821^e (Columbus, Ohio) with a Julabo FT900 intercooler chiller (Julabo Company; Allentown, Pa.). In general, samples were analyzed in a vented, sealed aluminum pan. Because the endothermic peak may vary depending upon the rate of heating and the calibration and precision of the instrument, with the amount of peak variation dependent upon the heating rate used, all thermograms included herein were run under the same, consistent conditions: heating at 10° C. per minute under a nitrogen purge at 40 mL/minute.
FIG. 8 illustrates a DSC thermogram for the combination of Form A, Form B and Form C having a second heating cycle with a maximum temperature of about 110° C. with a holding time of about 30 minutes. The peaks in the third heating cycle show a Form A to Form B to Form C peak area ratio of approximately 8:2:1, respectively, with the relative amount of Form A, Form B and Form C further variable on the heat of enthalpy of each polymorphic form.

[4] = DSC heating of disturbed/stressed sample: solid state phase transformation to Form A; format: physicochemical; conditions: sample disturbed (scratching/stressed), DSC from 30° C. to approximately 200° C. at 10° C. per minute
Source text: as §1, with “mL/minute. The resultant sample of Example 1A was disturbed with scratching, which caused the cilostazol sample to undergo a solid state phase transformation at approximately 119° C. followed by an endotherm of melt at approximately 160° C. (Form A) during heating by DSC from 30° C. to approximately 200° C. at 10° C. per minute. When the sample is stressed and reheated (as detailed in Example 2A), the sample undergoes a solid state phase transformation at approximately 147° C. followed by an endotherm of melt at about 160° C. […]” for “mL/minute.”

[5] = Stability of the crystalline form; format: physicochemical

For `O=C1CCc2cc(OCCCCc3nnnn3C3CCCCC3)ccc2N1` [Form A, 6-[4-(1-cyclohexyl-1H-tetrazol-5-yl)butoxy]-3,4-dihydro-2(1H)-quinolinone], the bioavailability [1] was “low bioavailability” and the aqueous solubility [2] was “low aqueous solubility”.

For `O=C1CCc2cc(OCCCCc3nnnn3C3CCCCC3)ccc2N1` [Form B, 6-[4-(1-cyclohexyl-1H-tetrazol-5-yl)butoxy]-3,4-dihydro-2(1H)-quinolinone], the “solubility relative to Form A” value [3] was “more soluble than Form A”, the “solid state phase transformation temperature (to Form A)” value ([4]; listed as Example 1A) was “approximately 119 °C” and the “stability of the polymorphic form” value [5] was “stable”.

In the case of `O=C1CCc2cc(OCCCCc3nnnn3C3CCCCC3)ccc2N1` [Form C, 6-[4-(1-cyclohexyl-1H-tetrazol-5-yl)butoxy]-3,4-dihydro-2(1H)-quinolinone], the “solid state phase transformation temperature (to Form A)” value ([4]; listed as Example 2A) is reported as “approximately 147 °C”.
